US9023789B2, “Amylin analogs and pharmaceutical compositions thereof” (Novo Nordisk A/S, priority 2012, dated 2015)
In brackets after ≈: the same amount, converted by molar mass. Where two headings read alike, the source gives them in different places. Numbered stars: 1 amine (or outer) side, 2 acyl side, 3 side chain; on linkers, the order of the positions; unused ones are H or OH. Bridge positions count the residues as written; N and C are the ends. Side chains are listed from the residue outwards. Peptide text beside a SMILES is read from it. * marks the point of attachment. C20 diacid = O=C(O)CCCCCCCCCCCCCCCCCCC(=O)*; γGlu = O=C(O)[C@H](CCC(=O)[*:2])N[*:1]; AEEA = NCCOCCOCC(=O)O

Key:
[1] = ASSAY (III) ThT fibrillation assay for physical stability; assay type: physicochemical
Summary of the method: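 Physical stability scored by ThT fluorescence (444 nm excitation, 485 nm emission) tracked every 20 min during 37 °C incubation with 960 rpm shaking, ThT at 1 μM final. Values are replicate means with SD at chosen times; HPLC against pramlintide standard gives initial and post-assay soluble concentrations.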

[2] = ASSAY (IV) determination of solubility; assay type: physicochemical
Summary of the method: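 UPLC read-out of polypeptide concentration after centrifugation. Samples: aqueous polypeptide stock ([…]) + 100 mM buffer 1:1, glycylglycine pH 3.0–5.0 or bistrispropane pH 6.0–8.0; 18 h, RT.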

[3] = target: T1, rat amylin receptor (rat calcitonin receptor + rat RAMP 3) (Rattus norvegicus, UniProt P32214+Q9JJ73); assay: ASSAY (VI) binding to the rat amylin receptor; conditions: for IC50: binding to rat amylin receptor, read-out: rAmylin-R bind IC50
T1 construct: expressed in transfected cells; host or cells: BHK tk'ts 13 (transient, FuGENE 6), membranes
T1 sequence (P32214 25-479 isoform P32214-2 limits assumed): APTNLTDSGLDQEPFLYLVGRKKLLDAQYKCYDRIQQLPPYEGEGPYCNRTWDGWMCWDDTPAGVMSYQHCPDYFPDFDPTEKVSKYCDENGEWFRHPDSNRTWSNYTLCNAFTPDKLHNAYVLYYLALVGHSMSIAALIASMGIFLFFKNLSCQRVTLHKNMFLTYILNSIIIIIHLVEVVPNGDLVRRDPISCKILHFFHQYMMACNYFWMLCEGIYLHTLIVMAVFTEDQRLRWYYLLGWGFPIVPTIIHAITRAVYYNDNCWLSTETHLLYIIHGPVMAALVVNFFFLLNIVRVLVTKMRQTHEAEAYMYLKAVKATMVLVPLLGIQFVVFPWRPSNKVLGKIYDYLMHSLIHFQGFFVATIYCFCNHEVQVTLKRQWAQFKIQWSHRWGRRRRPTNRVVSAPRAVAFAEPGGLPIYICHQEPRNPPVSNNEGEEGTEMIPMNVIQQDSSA
T1 sequence (Q9JJ73 23-147 partner): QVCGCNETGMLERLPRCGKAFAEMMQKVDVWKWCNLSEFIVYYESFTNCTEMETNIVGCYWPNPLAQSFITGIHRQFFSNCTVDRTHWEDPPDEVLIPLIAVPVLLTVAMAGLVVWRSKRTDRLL
Summary of the method: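 Membranes for this rat amylin receptor binding assay came from BHK tk′ts 13 cells. The cells were transiently transfected with rat calcitonin receptor using the FuGENE® 6 reagent from Roche, as the manufacturer recommends. The cells were collected approximately 48 hours after transfection, and membranes were then prepared.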

[4] = bistrispropane buffer, pH 6.5, read-out: Solubility pH 6.5 Concentration
[5] = bistrispropane buffer, pH 7.5, read-out: Solubility pH 7.5 Concentration
[6] = bistrispropane buffer, pH 6.0, read-out: Solubility pH 6.0 Concentration
[7] = bistrispropane buffer, pH 7.0, read-out: Solubility pH 7.0 Concentration
[8] = bistrispropane buffer, pH 8.0, read-out: Solubility pH 8.0 Concentration
[9] = glycylglycine buffer, pH 3.0, read-out: Solubility pH 3.0 Concentration
[10] = glycylglycine buffer, pH 4.0, read-out: Solubility pH 4.0 Concentration
[11] = glycylglycine buffer, pH 5.0, read-out: Solubility pH 5.0 Concentration
[12] = Table 7, rat binding selectivity, rCTR IC50 / rAmylin-R IC50
[13] = Table 7a (preferred compounds), rat binding selectivity, rCTR IC50 / rAmylin-R IC50
[14] = ratio of rCTR bind IC50 to rAmylin-R bind IC50

SMILES	ThT pH 4.0 lag time (h) [1]	solubility at 18 h [2, 4]	solubility at 18 h [2, 5]	solubility at 18 h [2, 6]	solubility at 18 h [2, 7]	solubility at 18 h [2, 8]	solubility at 18 h [2, 9]	solubility at 18 h [2, 10]	solubility at 18 h [2, 11]	IC50 ([3]; Table 7)	Ratio rCT/rAmylin binding [3, 12]	Ratio rCT/rAmylin binding [3, 13]	Ratio rCT/rAmylin binding [3, 14]
CC[C@H](C)[C@H](NC(=O)[C@H](C)NC(=O)CNC(=O)[C@H](Cc1ccccc1)NC(=O)[C@H](CC(N)=O)NC(=O)[C@@H]1CCCN1C(=O)[C@H](CO)NC(=O)[C@H](CO)NC(=O)[C@H](Cc1c[nH]cn1)NC(=O)[C@H](CCCNC(=N)N)NC(=O)[C@H](CC(C)C)NC(=O)[C@H](Cc1ccccc1)NC(=O)[C@H](CC(N)=O)NC(=O)[C@H](C)NC(=O)[C@H](CC(C)C)NC(=O)[C@H](CCCNC(=N)N)NC(=O)[C@H](CCC(N)=O)NC(=O)[C@@H](NC(=O)[C@H](C)NC(=O)[C@@H]1CSSC[C@H](NC(=O)[C@H](CCCNC(=N)N)NC(=O)[C@@H](N)CCCCNC(=O)COCCOCCNC(=O)CC[C@H](NC(=O)CCCCCCCCCCCCCCCCCCC(=O)O)C(=O)O)C(=O)N[C@@H](CC(N)=O)C(=O)N[C@@H]([C@@H](C)O)C(=O)N[C@@H](C)C(=O)N[C@@H]([C@@H](C)O)C(=O)N1)[C@@H](C)O)C(=O)N1CCC[C@H]1C(=O)N[C@@H](CO)C(=O)N[C@@H](CO)C(=O)N[C@H](C(=O)N[C@@H](CC(N)=O)C(=O)N[C@H](C(=O)NCC(=O)N[C@@H](CO)C(=O)N[C@@H](Cc1c[nH]cn1)C(=O)N[C@H](C(=O)N[C@@H](Cc1ccc(O)cc1)C(N)=O)[C@@H](C)O)C(C)C)[C@@H](C)O [Example 45] (H-K([AEEA-γGlu-C20 diacid])RCNTATCATQRLANFLRHSSPNFGAIPSSTNVGSHTY-NH2; disulfide 3-8 (inferred))	45 h	≥ 200 µM	≥ 200 µM	≥ 200 µM	≥ 200 µM	110 µM (≈ 518 µg/mL)	≥ 200 µM	≥ 200 µM	≥ 200 µM	0.623 nM	67.1	67.1	67.1
CC[C@H](C)[C@H](NC(=O)[C@H](C)NC(=O)CNC(=O)[C@H](Cc1ccccc1)NC(=O)[C@H](CC(N)=O)NC(=O)[C@@H]1CCCN1C(=O)[C@H](CO)NC(=O)[C@H](CO)NC(=O)[C@H](Cc1c[nH]cn1)NC(=O)[C@H](CCCNC(=N)N)NC(=O)[C@H](CC(C)C)NC(=O)[C@H](Cc1ccccc1)NC(=O)[C@H](CC(N)=O)NC(=O)[C@H](C)NC(=O)[C@H](CC(C)C)NC(=O)[C@H](CCCNC(=N)N)NC(=O)[C@H](CCC(N)=O)NC(=O)[C@@H](NC(=O)[C@H](C)NC(=O)[C@@H]1CSSC[C@H](NC(=O)[C@H](CCCNC(=N)N)NC(=O)CNC(=O)CC[C@H](NC(=O)CCCCCCCCCCCCCCCCCCC(=O)O)C(=O)O)C(=O)N[C@@H](CC(N)=O)C(=O)N[C@@H]([C@@H](C)O)C(=O)N[C@@H](C)C(=O)N[C@@H]([C@@H](C)O)C(=O)N1)[C@@H](C)O)C(=O)N1CCC[C@H]1C(=O)N[C@@H](CO)C(=O)N[C@@H](CO)C(=O)N[C@H](C(=O)N[C@@H](CC(N)=O)C(=O)N[C@H](C(=O)NCC(=O)N[C@@H](CO)C(=O)N[C@@H](Cc1c[nH]cn1)C(=O)N[C@H](C(=O)N[C@@H](Cc1ccc(O)cc1)C(N)=O)[C@@H](C)O)C(C)C)[C@@H](C)O [Example 47] ({C20 diacid-γGlu}-GRCNTATCATQRLANFLRHSSPNFGAIPSSTNVGSHTY-NH2; disulfide 3-8)	45 h	≥ 200 µM	50 µM (≈ 224 µg/mL)	≥ 200 µM	≥ 200 µM	68 µM (≈ 305 µg/mL)	≥ 200 µM	≥ 200 µM	≥ 200 µM	0.203 nM	84.3	84.3	84.3
CC[C@H](C)[C@H](NC(=O)[C@H](C)NC(=O)CNC(=O)[C@H](Cc1ccccc1)NC(=O)[C@H](CC(N)=O)NC(=O)[C@@H]1CCCN1C(=O)[C@H](CO)NC(=O)[C@H](CO)NC(=O)[C@H](Cc1c[nH]cn1)NC(=O)[C@H](CCCNC(=N)N)NC(=O)[C@H](CC(C)C)NC(=O)[C@H](Cc1ccccc1)NC(=O)[C@H](CCC(=O)O)NC(=O)[C@H](C)NC(=O)[C@H](CC(C)C)NC(=O)[C@H](CCCNC(=N)N)NC(=O)[C@H](CCC(N)=O)NC(=O)[C@@H](NC(=O)[C@H](C)NC(=O)[C@@H]1CSSC[C@H](NC(=O)[C@@H](N)CCCCNC(=O)CC[C@H](NC(=O)CCCCCCCCCCCCCCCCCCC(=O)O)C(=O)O)C(=O)N[C@@H](CC(N)=O)C(=O)N[C@@H]([C@@H](C)O)C(=O)N[C@@H](C)C(=O)N[C@@H]([C@@H](C)O)C(=O)N1)[C@@H](C)O)C(=O)N1CCC[C@H]1C(=O)N[C@@H](CO)C(=O)N[C@@H](CO)C(=O)N[C@H](C(=O)N[C@@H](CC(N)=O)C(=O)N[C@H](C(=O)NCC(=O)N[C@@H](CO)C(=O)N[C@@H](CCCNC(=N)N)C(=O)N[C@H](C(=O)N[C@@H](Cc1ccc(O)cc1)C(N)=O)[C@@H](C)O)C(C)C)[C@@H](C)O [Example 51] (H-K([γGlu-C20 diacid])CNTATCATQRLAEFLRHSSPNFGAIPSSTNVGSRTY-NH2; disulfide 2-7 (inferred); N-terminus assumed)	7 h	≥ 200 µM	183 µM (≈ 812 µg/mL)	≥ 200 µM	≥ 200 µM	109 µM (≈ 484 µg/mL)	≥ 200 µM	≥ 200 µM	≥ 200 µM	0.523 nM	118.6	118.6	118.6
CC[C@H](C)[C@H](NC(=O)[C@H](C)NC(=O)CNC(=O)[C@H](Cc1ccccc1)NC(=O)[C@H](CC(N)=O)NC(=O)[C@@H]1CCCN1C(=O)[C@H](CO)NC(=O)[C@H](CO)NC(=O)[C@H](Cc1c[nH]cn1)NC(=O)[C@H](CCCNC(=N)N)NC(=O)[C@H](CC(C)C)NC(=O)[C@H](Cc1ccccc1)NC(=O)[C@H](CC(=O)O)NC(=O)[C@H](C)NC(=O)[C@H](CC(C)C)NC(=O)[C@H](CCCNC(=N)N)NC(=O)[C@H](CCC(N)=O)NC(=O)[C@@H](NC(=O)[C@H](C)NC(=O)[C@@H]1CSSC[C@H](NC(=O)[C@@H](N)CCCCNC(=O)CC[C@H](NC(=O)CC[C@H](NC(=O)CCCCCCCCCCCCCCCCCCC(=O)O)C(=O)O)C(=O)O)C(=O)N[C@@H](CC(N)=O)C(=O)N[C@@H]([C@@H](C)O)C(=O)N[C@@H](C)C(=O)N[C@@H]([C@@H](C)O)C(=O)N1)[C@@H](C)O)C(=O)N1CCC[C@H]1C(=O)N[C@@H](CO)C(=O)N[C@@H](CO)C(=O)N[C@H](C(=O)N[C@@H](CC(N)=O)C(=O)N[C@H](C(=O)NCC(=O)N[C@@H](CO)C(=O)N[C@@H](CCCNC(=N)N)C(=O)N[C@H](C(=O)N[C@@H](Cc1ccc(O)cc1)C(N)=O)[C@@H](C)O)C(C)C)[C@@H](C)O [Example 52, N-ε-1-{(S)-4-carboxy-4-[(S)-4-carboxy-4-(19-carboxynonadecanoylamino)butyrylamino]butyryl}-[Asp14,Arg17,Pro21,Pro27,Arg35]-human amylin]	41 h	≥ 200 µM	106 µM (≈ 483 µg/mL)	≥ 200 µM	155 µM (≈ 706 µg/mL)	110 µM (≈ 501 µg/mL)	≥ 200 µM	≥ 200 µM	≥ 200 µM	0.335 nM	476.7	476.7	476.7
